Inhibition and Activity data for four molecules are collected here from ChEMBL document CHEMBL1140932, “Toward optimization of the second aryl substructure common to transthyretin amyloidogenesis inhibitors using biochemical and structural studies” (J Med Chem, 2009).

For experiment [1], the target named is Prostaglandin G/H synthase 1 (Homo sapiens) (UniProt P23219). Kind of experiment: Inhibition of COX1 assessed as inhibition of arachidonic acid conversion to prostaglandin-E2 release at 10 uM.
Experiment [2] addresses Transthyretin (Homo sapiens) (UniProt P02766). Kind of experiment: Inhibition of wild type TTR aggregation expressed in Escherichia coli assessed as fibril formation at 7.2 uM after 72 hrs relative to untreated-control.
The target is the same in experiment [3]. Kind of experiment: Binding affinity to TTR in human plasma assessed as binding stoichiometry at 10.8 uM after 24 hrs under dark condition by RP-HPLC based antibody capture method. It counts as cell-free.
The nature of experiment [4]: Displacement of [125I]triiodothyronine from thyroid hormone receptor at 10 uM by scintillation counting. Background: In a radioligand displacement assay an active substance lowers the binding of a labelled ligand.

Sequence of Prostaglandin G/H synthase 1 (Homo sapiens) (P23219 whole entry): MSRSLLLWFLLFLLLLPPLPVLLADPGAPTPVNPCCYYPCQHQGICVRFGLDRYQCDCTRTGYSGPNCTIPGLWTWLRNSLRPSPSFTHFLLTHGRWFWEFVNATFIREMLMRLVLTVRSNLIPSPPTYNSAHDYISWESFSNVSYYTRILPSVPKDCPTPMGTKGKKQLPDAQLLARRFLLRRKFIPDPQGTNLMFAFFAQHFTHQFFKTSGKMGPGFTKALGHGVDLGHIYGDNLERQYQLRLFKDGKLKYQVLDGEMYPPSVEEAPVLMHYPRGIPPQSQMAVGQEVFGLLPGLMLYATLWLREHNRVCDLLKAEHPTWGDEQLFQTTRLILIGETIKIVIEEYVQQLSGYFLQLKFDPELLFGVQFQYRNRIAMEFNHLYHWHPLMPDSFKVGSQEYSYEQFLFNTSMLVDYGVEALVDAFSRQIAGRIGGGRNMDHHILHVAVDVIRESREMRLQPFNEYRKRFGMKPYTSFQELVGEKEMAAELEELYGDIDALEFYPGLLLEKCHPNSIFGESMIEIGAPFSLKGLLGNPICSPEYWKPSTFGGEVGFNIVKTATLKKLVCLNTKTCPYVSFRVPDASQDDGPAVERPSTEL

The inhibition is the change of the read-out against control, counted positive when it falls. On to `O=C(Nc1cc(Br)c(O)c(Br)c1)c1cc(Br)ccc1Br`, for which the results for the inhibition in experiment [1], in experiment [2] and in experiment [4] were below 5%, 1% and 0%, respectively. Besides, the Activity in experiment [3] worked out at 1.4.

Turning to `Cc1cccc(C(=O)Nc2cc(Br)c(O)c(Br)c2)c1`, the inhibition was below 5% in experiment [1], 12% in experiment [2] and 2% in experiment [4]. In experiment [3], the Activity is 0.85.

`O=C(Nc1cc(Br)c(O)c(Br)c1)c1cc(O)ccc1O`: the results for the inhibition in experiment [1], in experiment [2] and in experiment [4] were below 5%, 1% and 13%, respectively. The Activity in experiment [3] is 1.01.

On to `COc1c(Cl)cc(C(=O)Nc2cc(Br)c(O)c(Br)c2)cc1Cl`, for which the inhibition in experiment [1] is below 5%; in experiment [2], 9%; in experiment [4] it was 10%. For the same molecule, in experiment [3], the Activity is 1.48.
